What was measured:
[1] = molar heat capacity at constant pressure; conditions: 101.33 kPa, Liquid, DSC
[2] = 101.33 kPa, Liquid; for speed of sound: Sing-around technique in a fixed-path interferometer; for mass density: Vibrating tube method; for viscosity: Falling or rolling sphere viscometry

CCCCn1cc[n+](C(CC)CC)c1.O=S(=O)([N-]S(=O)(=O)C(F)(F)F)C(F)(F)F
Conditions	mass density, [2] [kg/m3]	molar heat capacity at constant pressure, [1] [J/K/mol]	speed of sound, [2] [m/s]	viscosity, [2] [mPa·s]
287.15 K	1329.4	–	1238.8	–
289.15 K	1327.6	–	1233.8	–
291.15 K	1325.8	–	1228.9	–
293.15 K	1324	–	1224.1	159.5
294.15 K	–	692.9	–	148.8
295.15 K	1322.2	694.28	1219.3	–
296.15 K	–	695.14	–	–
297.15 K	1320.4	695.85	1214.5	–
298.15 K	–	696.61	–	118.2
299.15 K	1318.6	697.52	1209.8	–
300.15 K	–	698.18	–	–
301.15 K	1316.8	698.85	1205.1	–
302.15 K	–	699.65	–	–
303.15 K	1315	700.37	1200.4	89.55
304.15 K	–	701.22	–	–
305.15 K	1313.2	701.89	1195.8	–
306.15 K	–	702.56	–	–
307.15 K	1311.5	703.46	1191.2	–
308.15 K	–	704.22	–	–
309.15 K	1309.7	704.93	1186.7	–
310.15 K	–	705.84	–	–
311.15 K	1307.9	706.6	1182.1	–
312.15 K	–	707.21	–	–
313.15 K	1306.2	707.88	1177.6	54.83
314.15 K	–	708.69	–	–
315.15 K	1304.4	709.45	1173.1	–
316.15 K	–	710.35	–	–
317.15 K	1302.6	711.16	1168.6	–
318.15 K	–	711.87	–	–
319.15 K	1300.9	712.97	1164.2	–
320.15 K	–	713.78	–	–
321.15 K	1299.1	714.58	1159.8	–
322.15 K	–	715.35	–	–
323.15 K	1297.4	716.3	1155.4	35.98
324.15 K	–	717.1	–	–
325.15 K	1295.7	718.2	1151	–
326.15 K	–	718.67	–	–
327.15 K	1293.9	719.58	1146.6	–
328.15 K	–	720.2	–	–
329.15 K	1292.2	721.15	1142.3	–
330.15 K	–	721.72	–	–
331.15 K	1290.5	722.48	1137.9	–
332.15 K	–	723.24	–	–
333.15 K	1288.7	723.9	1133.6	25.07
334.15 K	–	724.81	–	–
335.15 K	1287	725.43	1129.3	–
336.15 K	–	726.23	–	–
337.15 K	1285.3	726.9	1125	–
338.15 K	–	727.47	–	–
339.15 K	1283.6	728.09	1120.8	–
340.15 K	–	729.04	–	–
341.15 K	1281.8	729.42	1116.6	–
342.15 K	–	730.13	–	–
343.15 K	1280.1	731.13	1112.4	18.26
344.15 K	–	731.94	–	–
345.15 K	–	732.61	–	–
346.15 K	–	733.37	–	–
347.15 K	–	733.89	–	–
348.15 K	–	734.79	–	–
353.15 K	–	–	–	13.84

CCCCC[n+]1ccn(CCCC)c1.O=S(=O)([N-]S(=O)(=O)C(F)(F)F)C(F)(F)F
Conditions	mass density, [2] [kg/m3]	molar heat capacity at constant pressure, [1] [J/K/mol]	speed of sound, [2] [m/s]
287.15 K	1327.3	–	1239.6
289.15 K	1325.5	–	1234.8
291.15 K	1323.7	–	1230
293.15 K	1321.9	683.58	1225.3
294.15 K	–	684.63	–
295.15 K	1320.1	685.3	1220.6
296.15 K	–	685.96	–
297.15 K	1318.3	686.63	1216
298.15 K	–	687.34	–
299.15 K	1316.5	687.96	1211.3
300.15 K	–	688.62	–
301.15 K	1314.7	689.29	1206.7
302.15 K	–	690	–
303.15 K	1312.9	690.67	1202.1
304.15 K	–	691.38	–
305.15 K	1311.1	692.05	1197.6
306.15 K	–	692.76	–
307.15 K	1309.4	693.52	1193
308.15 K	–	694.28	–
309.15 K	1307.6	694.95	1188.5
310.15 K	–	695.57	–
311.15 K	1305.8	696.23	1184
312.15 K	–	697.09	–
313.15 K	1304	697.9	1179.6
314.15 K	–	698.7	–
315.15 K	1302.3	699.42	1175.1
316.15 K	–	700.08	–
317.15 K	1300.5	700.84	1170.7
318.15 K	–	701.65	–
319.15 K	1298.8	702.37	1166.3
320.15 K	–	703.22	–
321.15 K	1297	703.98	1161.8
322.15 K	–	704.74	–
323.15 K	1295.2	705.5	1157.5
324.15 K	–	706.26	–
325.15 K	1293.5	707.07	1153.1
326.15 K	–	707.83	–
327.15 K	1291.7	708.69	1148.7
328.15 K	–	709.54	–
329.15 K	1290	710.35	1144.4
330.15 K	–	711.07	–
331.15 K	1288.3	711.87	1140.1
332.15 K	–	712.64	–
333.15 K	1286.5	713.4	1135.8
334.15 K	–	714.16	–
335.15 K	1284.8	714.87	1131.5
336.15 K	–	715.68	–
337.15 K	1283	716.44	1127.3
338.15 K	–	717.2	–
339.15 K	1281.3	718.01	1123
340.15 K	–	718.67	–
341.15 K	1279.6	719.43	1118.8
342.15 K	–	719.96	–
343.15 K	1277.8	720.62	1114.7
344.15 K	–	721.24	–
345.15 K	–	721.86	–
346.15 K	–	722.48	–
347.15 K	–	723.29	–
348.15 K	–	724.47	–
